From publication PMC5034043 (The Journal of Biological Chemistry, 2016)

Columns and labels:
[1] = system: alkylphenol-binding proteins within synaptosomes; assay: Fluorescent profiling: protection from AziPm-click (1) photolabeling of synaptosomes; set-up: species or system mouse; settings: propofol 75–375 μM; ketamine 150–450 μM; triplicate
Protocol: (§1) Synaptosomes were resuspended to 1 mg of protein/ml in HEPES buffer medium (in mM: 140 NaCl, 5 KCl, 5 NaHCO3, 1.2 NaH2PO4, 1 MgCl2, 10 glucose, and 10 HEPES (pH 7.4)). […] The samples were allowed to equilibrate for 5 min before being transferred to a parafilm-sealed 1-mm path length quartz cuvette. The sample was then irradiated for 20 min at a peak bandwidth of 350 nm (Rayonet RPR-3500 lamp) ∼6 cm from the light source. Non-irradiated samples were left in the dark at ambient temperature (22–25 °C) for 20 min. All remaining procedures were conducted with restricted light exposure.

GABAA receptor subunits = assay: Western blotting of streptavidin-captured GABAA receptor subunits with ligand protection; format: binding, mouse; settings: AziPm-click (1) 10 μM, protecting ligand 100 μM, UV irradiation; n = 4
Protocol: as §1
To 750 μg of photolabeled or control synaptosome samples, 40 μl of 10% SDS and 2 μl of 5 mM DTT in water were added. Samples were then vortexed, heated for 10 min at 65 °C, and then briefly cooled. Final concentrations of 150 μM azide-biotin (Click Chemistry Tools), 2 mM tris(3-hydroxypropyltriazolylmethyl)amine (Sigma), 1 mM ascorbic acid (Sigma), and 1 mM CuSO4·5H2O (Sigma) were added to each sample and vortexed vigorously. The samples were left in the dark at ambient temperature (22–25 °C) for 1 h with mild agitation. Directly to each sample 4× volume chilled methanol, 1.5× chilled chloroform, and 3× chilled double distilled H2O were added. Samples were vortexed vigorously and centrifuged at 1,400 × g for 30 min at 4 °C. […]

X. laevis tadpoles = assay: In vivo photolabeling in tadpoles (recovery after UV irradiation); set-up: species or system Xenopus laevis; settings: 12 μM for 30 min, then 10 min low intensity UV irradiation
Protocol: Tadpoles were then exposed to 10 min of low intensity UV irradiation or were maintained as a 10-min non-UV irradiation control.
Behavioral activity was initially determined in albino X. laevis tadpoles (stages 45–47) as described previously ([29], [33]). All animal care and experimental procedures involving X. laevis tadpoles were carried out according to a protocol approved by the IACUC of the University of Pennsylvania.

[2] = buffer

| SMILES | fluorescent labeling of synaptosomal proteins by AziPm-click (1) in presence of protecting ligand [1] | protection of GABAA receptor α and β subunits from AziPm-click (1) capture (GABAA receptor subunits) | immobility after drug washout (X. laevis tadpoles) | half-life (t½) of time-dependent photoreactivity [2] |
| --- | --- | --- | --- | --- |
| CC(C)c1cccc(C(C)C)c1O [propofol, 2,6-diisopropylphenol, reference compound] | decreased | significant decreases in capture efficiency |  |  |
| C#CCOCc1ccc(C2(C(F)(F)F)N=N2)cc1O [AziPm-click (1), 2-((prop-2-yn-1-yloxy)methyl)-5-(3-(trifluoromethyl)-3H-diazirin-3-yl)phenol] |  |  | prolonged immobility after drug washout | 25 min |
